Reference: US9212189B2, “Fluorescent probes for reactive sulfur species” (THE REGENTS OF THE UNIVERSITY OF CALIFORNIA, priority 2011, dated 2015)

Tests used:
[1] = Fluorescence response of 4-azido-1,8-naphthalimide to H2S
Protocol: FIG. 8. Fluorescence response of 10 μM 4-azido-1,8-naphthalimide to 100 μM H2S. Data were acquired at 25° C. in 20 mM HEPES buffered to pH 7.4 with excitation at λex=470 nm. Emission was collected between 495 and 650 nm. Time points represent 0, 15, 30, 45, and 60 min (red trace) after addition of 100 μM H2S. Reactions are not complete at these time points.

[2] = Spectroscopic properties (absorbance, emission, quantum yield); format: physicochemical; conditions: for absorption of the protected probe in the visible region: protected form, closed lactone conformation; for ε (extinction coefficient) of reaction product: at λmax; for Φ (quantum yield) of reaction product: fluorescein as standard, 20 mM HEPES pH 7.4; for λmax (absorbance) of reaction product: new absorbance band in the visible region; for λem of reaction product: product formed from 10 μM probe with 100 μM NaSH
Protocol: (§1) Millipore water was used to prepare all aqueous solutions. All spectroscopic measurements were performed in 20 mM HEPES buffer, pH 7.4. Fluorescence spectra were recorded on a Photon Technology International Quanta Master 4 L-format scanning spectrofluorometer (Lawrenceville, N.J.) equipped with an LPS-220B 75-W xenon lamp and power supply, A-1010B lamp housing with an integrated igniter, switchable 814 photon-counting/analog photomultiplier detection unit, and MD5020 motor driver. Samples for emission measurements were contained in 1-cm×0.1-cm quartz (1.5 mL volume, Starna, Atascadero, Calif.). Absorption spectra were recorded using a Varian Cary 50 spectrophotometer (Walnut Creek, Calif.).
FIG. 1. Absorbance spectra of (a) 10 μM SF1 (b) 10 μM SF2, and 10 μM of rhodamine products (c) tert-butoxycarbonyl-rhodamine 110 and (d) morpholinourea-rhodamine 110.
Quantum yields were determined using fluorescein as a standard according to a published method.^S3 For each compound and fluorescein, the absorbance spectra were measured within an absorbance range of 0.01 to 0.1. The quantum yield was calculated according to the equation: Φsample=Φstandard (Gradsample/Gradstandard)[…], where Φ is the quantum yield, Φstandard=0.95 in 0.1 M NaOH, Grad is the slope of the plot of […], and η is the refractive index of the solvent.

[3] = Selectivity tests: fluorescence responses to biologically relevant RSS, RNS and ROS; conditions: for turn-on response for H2S relative to other RSS, ROS and RNS: 10 μM probe, 20 mM HEPES pH 7.4; for selectivity for H2S over abundant biologically relevant thiols: 5 mM glutathione and 5 mM cysteine (50× the amount of H2S tested); for response to most biologically relevant ROS or RNS: H2O2, tBuOOH, OCl−, NO2−, NO; for fluorescence response to other relevant RSS: thiosulfate, thiocyanate, S-nitroso glutathione, lipoic acid
Protocol: Selectivities for the SF1 and SF2 probes were measured by fluorescence responses (λex=488 nm, λem=525 nm) at 0, 15, 30, 45, and 60 min. All assays were performed in 20 mM HEPES buffered to pH 7.4. • H2S: 10 μL of a 10 mM stock solution of NaSH in degassed HEPES was added to 10 μM SF1 or SF2 in HEPES with 0.2% DMF. • Glutathione and cysteine: 2 μL of 5 mM SF1 or SF2 in DMF was added to 998 μL 5 mM glutathione or cysteine HEPES. • Lipoic acid: 10 μL of a 10 mM stock solution of lipoic acid in HEPES was added to 990 μL of 10 μM SF1 or SF2 in HEPES with 0.2% DMF. • Na2SO3: 10 μL of a 10 mM stock solution of Na2SO3 in HEPES was added to 990 μL of 10 μM SF1 or SF2 in HEPES with 0.2% DMF. • NaS2O3: 10 μL of a 10 mM stock solution of NaS2O3 in HEPES was added to 990 μL of 10 μM SF1 or SF2 in HEPES with 0.2% DMF. • KSCN: 10 μL of a 10 mM stock solution of KSCN in HEPES was added to 990 μL of 10 μM SF1 or SF2 in HEPES with 0.2% DMF. • S-nitrosoglutathione:^S4 10 μL of a 10 mM stock solution of S-nitroso glutathione in HEPES was added to 990 μL of 10 μM SF1 or SF2 in HEPES with 0.2% DMF. • NaNO2: 10 μL of a 10 mM stock solution of NaNO2 in HEPES was added to 990 μL of 10 μM SF1 or SF2 in HEPES with 0.2% DMF. • NO: 5 μL of a 10 mM stock solution of Proli-NONOATE in degassed (by bubbling N2 for ˜30 min) 10 mM NaOH in HEPES was added to 995 μL of a degassed (by bubbling N2 for ˜30 min) solution of 10 μM SF1 or SF2 in HEPES with 0.2% DMF. • H2O2: 10 μL of a 10 mM stock solution of H2O2 in HEPES was added to 990 μL of 10 μM SF1 or SF2 in HEPES with 0.2% DMF. • O2^−: 100 μL of a saturated solution of KO2 in DMSO (˜1 mM) was added to 900 μL of 10 μM SF1 or SF2 in HEPES with 0.2% DMF. • ^tBuOOH: 10 μL of a 10 mM stock solution of tBuOOH in HEPES buffered to was added to 990 μL of 10 μM SF1 or SF2 in HEPES with 0.2% DMF. • HOCl: 10 μL of a 10 mM stock solution of HOCl in HEPES was added to 990 μL of 10 μM SF1 or SF2 in HEPES with 0.2% DMF.
FIG. 5. Fluorescence responses of (a) 10 μM SF1 and (b) 10 μM SF2 to biologically relevant RSS, RNS, and ROS. Bars represent relative responses at 525 nm at 0, 15, 30, 45, and 60 min after addition of RSS, RNS, or ROS. Data shown are for 5 mM glutathione, 5 mM cysteine, and 100 μM for other RSS, RNS, and ROS. Data were acquired in 20 mM HEPES buffered at pH 7.4 with excitation at λex=488 nm. 1. H2S; 2. glutathione; 3. cysteine; 4. lipoic acid; 5. Na2SO3; 6. NaS2O3; 7. KSCN; 8. S-nitroso glutathione; 9. NaNO2; 10. NO; 11. H2O2; 12. O2^−; 13. ^tBuOOH; 14. HOCl.

HEK293T cells = assay: Confocal imaging of H2S detection in live HEK293T cells; format: cell-based; conditions: for intracellular fluorescence intensity after NaSH: 5 μM probe 30 min, then 250 μM NaSH 30 min, excitation 488 nm; for background response in untreated cells: absence of exogenous H2S; for cell viability over the course of the experiments: bright field images co-localized with Hoescht nuclear staining
Protocol: HEK 293T cells were maintained in exponential growth as a monolayer in Dulbecco's Modified Eagle Medium (DMEM, Invitrogen) supplemented with 10% fetal bovine serum (FBS, Hyclone), and incubated at 37° C. in 5% CO2. One or two days before imaging, the cells were passaged and plated in phenol red-free medium on 4-well Lab-Tek borosilicate chambered coverglass slides (Nunc) and allowed to grow to 50-70% confluence. For all experiments, solutions of SF1 and SF2 were prepared in DMF (5 mM) and diluted into DMEM at the desired working concentrations (5 μM). NaSH was delivered from a stock solution of 25 mM in degassed (by bubbling N2 for ˜30 min) Dulbecco's Phosphate Buffered Saline (DPBS). Cells were treated with SF1 or SF2 for one hour, with NaSH (50-250 μM) or blank control added for the final 30 minutes. Images were collected at 30 min after NaSH addition. For nuclear imaging studies, cells were incubated with 1 μM Hoechst 33342 at 37° C. for 30 min prior to imaging.
Confocal Imaging Experiments. Confocal fluorescence imaging studies were performed with a Zeiss laser scanning microscope 710 with a 40× water objective lens, with Zen 2009 software (Carl Zeiss). SF1 and SF2 were excited using a 488 nm Ar laser, and emission collected using a META detector between 500 and 650 nm. Hoechst 33342 was excited with a 405 nm diode laser, and emission collected using a META detector between 450 and 500 nm. The cells were imaged at 37° C. and 5% CO2 throughout the course of the experiment. Image analysis was performed using ImageJ (National Institute of Health).
FIG. 6. Confocal images of H2S detection in live HEK293T cells using SF1 and SF2. (a) HEK293T cells incubated with SF1 for 60 min at 37° C. (b) HEK293T cells incubated with SF1 for 60 min at 37° C. with 250 μM NaSH added for the final 30 min. (c) Brightfield images of the same field of cells in (b) overlaid with images of 1 μM Hoescht stain at 37° C. (d) HEK293T cells incubated with SF2 for 60 min at 37° C. (e) HEK293T cells incubated with SF2 for 60 min at 37° C. with 250 μM NaSH added for the final 30 min. (f) Brightfield images of the same field of cells in (e) overlaid with images of 1 μM Hoescht stain at 37° C. Scale bars represent […].
FIG. 7. Mean fluorescence intensity of confocal images of H2S detected in live HEK293T cells treated with 0, 50, 100, and 250 μM H2S. (a) HEK293T cells were incubated with SF1 for 60 min at 37° C. with the indicated amount of H2S added for the final 30 min. (b) HEK293T cells were incubated with SF2 for 60 min at 37° C. with the indicated amount of H2S added for the final 30 min. Data represent the mean fluorescence intensity of distinct fields (n=4). Error bars are ±s.e.m.

[4] = Fluorescence response of probe to H2S (NaSH) in HEPES buffer; conditions: 10 μM probe, 100 μM NaSH, after one hour of reaction
Protocol: as §1
A 10 μM solution of SF1 or SF2 in 20 mM HEPES buffered to pH 7.4 was prepared from a 5 mM stock solution of SF1 or SF2 in DMF in a 1.5 mL eppendorf tube. 10 μL of 10 mM stock solution of NaSH in degassed (by bubbling N2 for ˜30 min) 20 mM HEPES buffered at pH 7.4 was added (for a final concentration of 100 μM) and the mixture was vortexed for 10 s and then transferred to a cuvette. Emission spectra (λex=488 nm, λex=498-700 nm) were collected at 10, 20, 30, 40, 50, and 60 min. The spectrum at t=0 was acquired from a 10 μM solution of SF1 or SF2 without the addition of NaSH.
FIG. 2. Fluorescence responses of (a) 10 μM SF1 and (b) 10 μM SF2 to 100 μM H2S. […]

Molecule | emission compared with SF1 and SF2 [1] | cellular permeability (HEK293T cells; live HEK293T cells) | absorption of the protected probe in the visible region [2] | selectivity for H2S versus superoxide (O2−) [3] | turn-on response for H2S relative to other RSS, ROS and RNS [3] | selectivity for H2S over abundant biologically relevant thiols [3] | response to most biologically relevant ROS or RNS [3] | fluorescence response to other relevant RSS ([3]; sulfite) | intracellular fluorescence intensity after NaSH (HEK293T cells) | background response in untreated cells (HEK293T cells) | cell viability over the course of the experiments (HEK293T cells) | turn-on response (fluorescence) [4] | fluorescence properties in vitro as compared to SF1 ([3]; greater response to H2S, lower background reactivity, better selectivity versus glutathione, sulfite, O2−) | staining of cellular nuclei (HEK293T cells; live HEK293T cells) | ε (extinction coefficient) of reaction product [2] | Φ (quantum yield) of reaction product [2] | λmax (absorbance) of reaction product [2] | λem of reaction product [2]
[N-]=[N+]=Nc1ccc2c3c(cccc13)C(=O)NC2=O [4-Azido-1,8-naphthalimide] | red-shifted emission |  |  |  |  |  |  |  |  |  |  |  |  |  |  |  |  | 
morpholinourea-rhodamine 110 [Product from SF2] |  |  |  |  |  |  |  |  |  |  |  |  |  |  | 75,000 M^−1cm^−1 | 0.60 | 492 nm | 525 nm
tert-butoxycarbonyl-rhodamine 110 [Product from SF1] |  |  |  |  |  |  |  |  |  |  |  |  |  |  | 61,000 M^−1cm^−1 | 0.51 | 490 nm | 525 nm

Second part, led by results:

emission compared with SF1 and SF2 [1] | cellular permeability (HEK293T cells; live HEK293T cells) | Molecule | absorption of the protected probe in the visible region [2] | selectivity for H2S versus superoxide (O2−) [3] | turn-on response for H2S relative to other RSS, ROS and RNS [3] | selectivity for H2S over abundant biologically relevant thiols [3] | response to most biologically relevant ROS or RNS [3] | fluorescence response to other relevant RSS ([3]; sulfite) | intracellular fluorescence intensity after NaSH (HEK293T cells) | background response in untreated cells (HEK293T cells) | cell viability over the course of the experiments (HEK293T cells) | turn-on response (fluorescence) [4] | fluorescence properties in vitro as compared to SF1 ([3]; greater response to H2S, lower background reactivity, better selectivity versus glutathione, sulfite, O2−) | staining of cellular nuclei (HEK293T cells; live HEK293T cells) | ε (extinction coefficient) of reaction product [2] | Φ (quantum yield) of reaction product [2] | λmax (absorbance) of reaction product [2] | λem of reaction product [2]
 | exceptional cellular permeability | CC(C)(C)OC(=O)Nc1ccc2c(c1)Oc1cc(N=[N+]=[N-])ccc1C21OC(=O)c2ccccc21 (stereo not drawn) [SF1, Sulfidefluor-1] | no absorption features in the visible region | good selectivity | selective turn-on response | high selectivity | do not respond | negligible or small fluorescence responses | patent increase in intracellular fluorescence intensity | little background response | confirm the cell viability | 7 fold |  |  |  |  |  | 
 | exceptional cellular permeability | [N-]=[N+]=Nc1ccc2c(c1)Oc1cc(NC(=O)N3CCOCC3)ccc1C21OC(=O)c2ccccc21 (stereo not drawn) [SF2, Sulfidefluor-2] | no absorption features in the visible region | good selectivity | selective turn-on response | high selectivity | do not respond | negligible or small fluorescence responses | patent increase in intracellular fluorescence intensity | little background response | confirm the cell viability | 9 fold | more favorable fluorescence properties in vitro | significant staining of the cellular nuclei |  |  |  | 
